Columns and labels:
Test in all cases: HTRF displacement of biotinylated H4Ac4 peptide
Assay type in all cases: binding
hBrd4 BD1 = hBrd4 BD1 (Homo sapiens, UniProt O60885)
CaBD2 (CaBdf1 BD2) = molecular target: T1, CaBD2 (CaBdf1 BD2) (Candida albicans, UniProt Q5A4W8)
T1 sequence (Q5A4W8 386-491): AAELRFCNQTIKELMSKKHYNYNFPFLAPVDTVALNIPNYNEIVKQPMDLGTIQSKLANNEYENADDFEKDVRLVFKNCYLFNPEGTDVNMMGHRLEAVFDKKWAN

hBrd4 BD2 = hBrd4 BD2 (Homo sapiens, UniProt O60885)
CaBD1 (CaBdf1 BD1) = molecular target: T2, CaBD1 (CaBdf1 BD1) (Candida albicans, UniProt Q5A4W8)
T2 sequence (Q5A4W8 193-327): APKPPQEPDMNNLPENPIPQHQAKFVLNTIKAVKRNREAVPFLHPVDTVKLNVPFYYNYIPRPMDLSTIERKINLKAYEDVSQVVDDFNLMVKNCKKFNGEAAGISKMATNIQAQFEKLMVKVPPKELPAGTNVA

IC50 (hBrd4 BD1) | IC50 (CaBD2 (CaBdf1 BD2)) | IC50 (hBrd4 BD2) | IC50 (CaBD1 (CaBdf1 BD1)) | Compound
> 20 µM | 1.01 ± 0.19 µM | > 20 µM | > 20 µM | Cc1ccc(Nc2c(-c3ccc(O)cc3)nc3c(I)cccn23)cc1 [1g, 4‐(8‐Iodo‐3‐(p‐tolylamino)imidazo[1,2‐a]pyridin‐2‐yl)phenol]
> 20 µM | 0.37 ± 0.09 µM | 2.24 ± 0.65 µM | > 20 µM | Cc1cccn2c(Nc3ccc(N)cc3)c(-c3ccc(O)cc3)nc12 [1h, 4‐(3‐([4‐Aminophenyl]amino)‐8‐methylimidazo[1,2‐a]pyridin‐2‐yl)phenol]
> 20 µM | 4.35 ± 0.63 µM | 12.8 ± 3.2 µM | > 20 µM | Cc1cccn2c(Nc3ccc(Br)cc3)c(-c3ccc(O)cc3)nc12 [1i, 4‐(3‐([4‐Bromophenyl]amino)‐8‐methylimidazo[1,2‐a]pyridin‐2‐yl)phenol]
> 20 µM | 4.39 ± 1.04 µM | > 20 µM | > 20 µM | Cc1cccn2c(Nc3ccc([N+](=O)[O-])cc3)c(-c3ccc(O)cc3)nc12 [1j, 4‐(8‐Methyl‐3‐([4‐nitrophenyl]amino)imidazo[1,2‐a]pyridin‐2‐yl)phenol]
> 20 µM | 3.9 ± 0.35 µM | > 20 µM | > 20 µM | Cc1ccc(Nc2c(-c3ccc(O)cc3)nc3c(C)cccn23)cc1 [compound 1, imidazopyridine (1)]

More lines, now with the values behind:

Compound | IC50 (hBrd4 BD1) | IC50 (CaBD2 (CaBdf1 BD2)) | IC50 (hBrd4 BD2) | IC50 (CaBD1 (CaBdf1 BD1))
Cc1ccc(Nc2c(-c3ccc(O)cc3)nc3c(Cl)cccn23)cc1 [1e, 4‐(8‐Chloro‐3‐(p‐tolylamino)imidazo[1,2‐a]pyridin‐2‐yl)phenol] | > 20 µM | 1.5 ± 0.42 µM | 16 ± 1.2 µM | > 20 µM
Cc1ccc(Nc2c(-c3ccc(O)cc3F)nc3c(C)cccn23)cc1 [1b, 3‐Fluoro‐4‐(8‐methyl‐3‐(p‐tolylamino)imidazo[1,2‐a]pyridin‐2‐yl)phenol] | > 20 µM | 5.22 ± 2.12 µM | > 20 µM | > 20 µM
Cc1ccc(Nc2c(-c3ccc(O)cc3)nc3c(Br)cccn23)cc1 [1f, 4‐(8‐Bromo‐3‐(p‐tolylamino)imidazo[1,2‐a]pyridin‐2‐yl)phenol] | > 20 µM | 0.75 ± 0.25 µM | > 20 µM | > 20 µM
Cc1ccc(Nc2c(-c3ccc(O)cc3)nc3c(C)cccn23)cc1O [1c, 5‐((2‐(4‐Hydroxyphenyl)‐8‐methylimidazo[1,2‐a]pyridin‐3‐yl)amino)‐2‐methylphenol] | > 20 µM | 0.78 ± 0.15 µM | > 20 µM | > 20 µM
Cc1ccc(Nc2c(-c3ccc(O)cc3)nc3c(C)cccn23)c(O)c1 [1d, 2‐((2‐(4‐Hydroxyphenyl)‐8‐methylimidazo[1,2‐a]pyridin‐3‐yl)amino)‐5‐methylphenol] | > 20 µM | 9.74 ± 0.19 µM | > 20 µM | > 20 µM
Cc1ccc(Nc2c(-c3ccc(O)c(F)c3)nc3c(C)cccn23)cc1 [1a, 2‐Fluoro‐4‐(8‐methyl‐3‐(p‐tolylamino)imidazo[1,2‐a]pyridin‐2‐yl)phenol] | 14.8 ± 6.9 µM | 6.3 ± 2.78 µM | 8.7 ± 1.8 µM | > 20 µM
